Source: patent publication US10245261B2, “Substituted indol-5-ol derivatives and their therapeutic applications” (NantBioScience, Inc., priority 2013, dated 2019)

Tests used:
CHK2(I157T)(h) = CHK2(I157T)(h) (Homo sapiens, UniProt O96017, I157T); assay: KinaseProfiler kinase assay; format: biochemical
How it was run: (§1)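 Compounds were serially diluted from DMSO into 20 mM MOPS buffer with EDTA, Brij-35, glycerol, β-mercaptoethanol and 1 mg/mL BSA. Reactions started with MgATP/[γ-33P]ATP, ran 40 min at room temperature, and phosphorylation was measured by scintillation counting after filtermat capture.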

CK1δ(h) = CK1δ(h) (Homo sapiens, UniProt P48730); assay: KinaseProfiler kinase assay; format: biochemical
Chain of CK1δ(h) (P48730 whole entry): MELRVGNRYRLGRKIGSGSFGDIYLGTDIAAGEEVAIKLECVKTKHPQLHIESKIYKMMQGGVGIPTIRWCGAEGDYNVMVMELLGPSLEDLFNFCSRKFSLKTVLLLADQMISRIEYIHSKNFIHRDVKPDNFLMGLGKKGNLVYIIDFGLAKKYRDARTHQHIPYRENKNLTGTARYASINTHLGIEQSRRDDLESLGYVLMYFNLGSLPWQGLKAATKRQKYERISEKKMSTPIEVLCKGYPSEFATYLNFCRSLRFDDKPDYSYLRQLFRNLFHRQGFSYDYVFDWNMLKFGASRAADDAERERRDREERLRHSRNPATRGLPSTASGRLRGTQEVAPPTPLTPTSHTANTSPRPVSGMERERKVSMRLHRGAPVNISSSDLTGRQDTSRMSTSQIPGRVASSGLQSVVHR
How it was run: as §1

IR(h) = IR(h) (Homo sapiens, UniProt P06213); assay: KinaseProfiler kinase assay; format: biochemical
Chain of IR(h) (P06213 28-1382): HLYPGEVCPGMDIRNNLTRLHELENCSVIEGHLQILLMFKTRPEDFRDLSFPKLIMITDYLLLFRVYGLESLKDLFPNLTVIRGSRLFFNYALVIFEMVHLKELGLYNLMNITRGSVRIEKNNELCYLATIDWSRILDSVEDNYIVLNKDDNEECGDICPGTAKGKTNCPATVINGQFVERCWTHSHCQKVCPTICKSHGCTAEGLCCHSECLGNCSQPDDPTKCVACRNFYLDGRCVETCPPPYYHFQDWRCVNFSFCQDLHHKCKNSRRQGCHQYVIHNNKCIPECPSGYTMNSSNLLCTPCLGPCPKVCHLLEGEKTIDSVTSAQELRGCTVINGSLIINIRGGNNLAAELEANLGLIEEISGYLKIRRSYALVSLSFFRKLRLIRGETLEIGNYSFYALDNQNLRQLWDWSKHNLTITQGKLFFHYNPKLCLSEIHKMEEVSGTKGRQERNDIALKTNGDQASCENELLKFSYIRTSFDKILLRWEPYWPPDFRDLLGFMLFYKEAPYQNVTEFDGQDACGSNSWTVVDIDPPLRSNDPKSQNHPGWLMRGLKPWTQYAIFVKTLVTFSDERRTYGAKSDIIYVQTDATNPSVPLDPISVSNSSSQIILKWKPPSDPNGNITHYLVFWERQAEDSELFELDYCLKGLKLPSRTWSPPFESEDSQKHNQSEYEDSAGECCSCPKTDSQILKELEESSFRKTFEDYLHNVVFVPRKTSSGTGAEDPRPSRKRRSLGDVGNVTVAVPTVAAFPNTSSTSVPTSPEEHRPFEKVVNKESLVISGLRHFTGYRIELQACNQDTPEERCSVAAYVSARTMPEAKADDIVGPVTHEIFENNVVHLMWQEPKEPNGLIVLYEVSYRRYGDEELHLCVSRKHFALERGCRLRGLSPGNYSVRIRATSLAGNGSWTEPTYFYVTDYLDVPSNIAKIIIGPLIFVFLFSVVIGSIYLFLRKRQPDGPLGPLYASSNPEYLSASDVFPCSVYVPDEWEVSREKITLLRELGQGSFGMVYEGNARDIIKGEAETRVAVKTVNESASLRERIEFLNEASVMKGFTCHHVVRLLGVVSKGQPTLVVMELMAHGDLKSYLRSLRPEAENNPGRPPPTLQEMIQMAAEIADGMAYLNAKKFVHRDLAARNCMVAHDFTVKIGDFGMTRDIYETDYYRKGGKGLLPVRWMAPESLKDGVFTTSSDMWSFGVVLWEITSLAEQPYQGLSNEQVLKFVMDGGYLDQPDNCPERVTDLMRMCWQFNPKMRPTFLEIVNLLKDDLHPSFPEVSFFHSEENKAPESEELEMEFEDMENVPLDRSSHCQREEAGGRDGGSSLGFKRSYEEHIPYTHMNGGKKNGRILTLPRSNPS
How it was run: as §1

LOK(h) = LOK(h) (Homo sapiens, UniProt O94804); assay: KinaseProfiler kinase assay; format: biochemical
How it was run: as §1

NEK7(h) = NEK7(h) (Homo sapiens, UniProt Q8TDX7); assay: KinaseProfiler kinase assay; format: biochemical
Chain of NEK7(h) (Q8TDX7 whole entry): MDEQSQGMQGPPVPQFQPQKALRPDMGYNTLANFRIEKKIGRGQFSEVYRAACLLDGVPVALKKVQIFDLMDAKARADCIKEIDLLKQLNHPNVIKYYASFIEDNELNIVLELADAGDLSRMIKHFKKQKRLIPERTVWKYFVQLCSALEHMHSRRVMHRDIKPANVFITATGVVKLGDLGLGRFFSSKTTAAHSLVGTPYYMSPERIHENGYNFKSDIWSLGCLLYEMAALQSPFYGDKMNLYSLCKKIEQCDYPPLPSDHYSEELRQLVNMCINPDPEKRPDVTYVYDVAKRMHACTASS
How it was run: as §1

Pim-2(h) = Pim-2(h) (Homo sapiens, UniProt Q9P1W9); assay: KinaseProfiler kinase assay; format: biochemical
Chain of Pim-2(h) (Q9P1W9 whole entry): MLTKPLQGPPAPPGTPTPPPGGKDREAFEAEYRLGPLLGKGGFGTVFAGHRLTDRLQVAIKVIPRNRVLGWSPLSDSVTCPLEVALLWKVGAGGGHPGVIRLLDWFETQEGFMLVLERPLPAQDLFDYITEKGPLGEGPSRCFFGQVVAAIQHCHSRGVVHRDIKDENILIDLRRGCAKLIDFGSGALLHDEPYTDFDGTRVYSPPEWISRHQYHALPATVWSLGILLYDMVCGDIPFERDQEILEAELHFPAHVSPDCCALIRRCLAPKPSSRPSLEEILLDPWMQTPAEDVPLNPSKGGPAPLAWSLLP
How it was run: as §1

TAO3(h) = TAO3(h) (Homo sapiens, UniProt Q9H2K8); assay: KinaseProfiler kinase assay; format: biochemical
Chain of TAO3(h) (Q9H2K8 whole entry): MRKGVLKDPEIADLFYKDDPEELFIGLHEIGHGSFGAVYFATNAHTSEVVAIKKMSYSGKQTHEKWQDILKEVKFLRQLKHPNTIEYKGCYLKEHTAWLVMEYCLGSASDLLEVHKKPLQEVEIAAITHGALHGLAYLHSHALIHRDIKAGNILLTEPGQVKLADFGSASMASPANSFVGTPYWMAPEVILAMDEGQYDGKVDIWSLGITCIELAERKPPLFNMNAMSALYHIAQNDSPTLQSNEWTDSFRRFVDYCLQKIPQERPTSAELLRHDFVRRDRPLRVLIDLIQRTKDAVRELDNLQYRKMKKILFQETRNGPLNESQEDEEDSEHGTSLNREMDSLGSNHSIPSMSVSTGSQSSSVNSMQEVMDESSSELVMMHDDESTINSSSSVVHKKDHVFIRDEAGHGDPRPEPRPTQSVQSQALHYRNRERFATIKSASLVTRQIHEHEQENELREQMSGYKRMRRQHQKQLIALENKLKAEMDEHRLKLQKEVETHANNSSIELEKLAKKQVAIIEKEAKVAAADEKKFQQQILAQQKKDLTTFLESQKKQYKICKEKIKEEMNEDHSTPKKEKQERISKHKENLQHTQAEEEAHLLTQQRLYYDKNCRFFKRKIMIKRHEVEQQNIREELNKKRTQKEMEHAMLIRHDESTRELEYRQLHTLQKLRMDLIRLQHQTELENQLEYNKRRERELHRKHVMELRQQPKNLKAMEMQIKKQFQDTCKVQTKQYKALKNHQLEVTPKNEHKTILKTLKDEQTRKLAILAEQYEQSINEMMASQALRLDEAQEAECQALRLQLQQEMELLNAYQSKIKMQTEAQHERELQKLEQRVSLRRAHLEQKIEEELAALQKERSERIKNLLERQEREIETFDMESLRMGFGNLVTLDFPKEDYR
How it was run: as §1

Yes(h) = Yes(h) (Homo sapiens, UniProt P07947); assay: KinaseProfiler kinase assay; format: biochemical
Chain of Yes(h) (P07947 whole entry): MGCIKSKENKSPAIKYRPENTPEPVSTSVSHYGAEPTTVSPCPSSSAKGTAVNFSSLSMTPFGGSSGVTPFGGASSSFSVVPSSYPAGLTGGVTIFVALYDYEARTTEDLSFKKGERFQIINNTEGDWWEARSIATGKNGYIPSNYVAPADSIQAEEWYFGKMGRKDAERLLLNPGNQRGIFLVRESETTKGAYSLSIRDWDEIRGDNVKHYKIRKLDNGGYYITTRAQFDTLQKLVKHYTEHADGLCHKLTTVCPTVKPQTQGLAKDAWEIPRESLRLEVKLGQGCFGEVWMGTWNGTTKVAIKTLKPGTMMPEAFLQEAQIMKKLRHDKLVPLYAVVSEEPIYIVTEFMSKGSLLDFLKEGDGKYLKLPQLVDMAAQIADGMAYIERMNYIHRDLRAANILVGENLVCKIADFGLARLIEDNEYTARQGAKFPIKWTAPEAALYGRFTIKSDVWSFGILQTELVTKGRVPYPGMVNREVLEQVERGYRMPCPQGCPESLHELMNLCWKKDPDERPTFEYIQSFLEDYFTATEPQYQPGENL
How it was run: as §1

[1] = test system: U251 human CNS tumor xenograft; assay: U251 human CNS tumor xenograft model in nude mice; format: in vivo, mouse; conditions: 60 mg/kg intraperitoneal
Experimental: The in vivo anti-tumor efficacy of Compound 53 has been studied using U251 human CNS tumor xenograft model in nude mice (FIG. 16). This was a subcutaneous early stage experiment (defined as a median tumor staging size less than 200 mg). Compound 53 or vehicle control was administered by Intraperitoneal injection for various days with different doses. […] Compound 53 was well tolerated at this doses with maximum body weight lose 3.4%.

[2] = test system: SC LOX IMVI Melanoma Xenografts; assay: SC LOX IMVI Melanoma Xenografts model in nude mice; format: in vivo, mouse; conditions: 50 mg/kg intraperitoneal
Experimental: The in vivo anti-tumor efficacy of Compound 53 has been studied using SC LOX IMVI Melanoma Xenografts model in nude mice (FIG. 76). This was a subcutaneous early stage experiment (defined as a median tumor staging size less than 200 mg). Compound 53 or vehicle control was administered by Intraperitoneal injection for various days with different doses.

[3] = test system: AN3 human endometrial carcinoma xenograft; assay: Endometrial carcinoma xenograft; format: in vivo, mouse
[4] = test system: Panc-1 pancreatic carcinoma; assay: Panc-1 model of pancreatic carcinoma; format: in vivo, mouse; conditions: with or without Abraxane
[5] = test system: FLT3 phosphorylation (pFLT3) of MV4-11 tumors; assay: FLT3 phosphorylation in MV4-11 tumor xenografts after oral dosing; format: in vivo; conditions: Mus musculus, 24 hour after single oral 50 mg/kg
Experimental: (§2) The mice carrying the established MV4-11 tumor xenografts (tumor volume around 150 mm^3) were given an oral dose of 50 mg/kg NTW-3456. At 0, 1, 2, 8, 16, 24 hours after dosing, three were euthanized. The blood samples were collected and plasma was prepared with centrifuge for LCMS assay. And the tumors were harvested, homogenized in lysis buffer, immunoprecipitated with anti-FLT3 antibody FIG. 33.
(§3) The curve (solid dot) is the plot of plasma concentration-time profiles of NTW-3456 after oral administration of 50 mg/kg.

[6] = Plasma concentration after oral dosing in MV4-11 tumor-bearing mice (LCMS); format: in vivo; conditions: SCID, mouse, 24 hour after single oral 50 mg/kg
Experimental: as §2, §3

Chain of CHK2(I157T)(h) (O96017 whole entry I157T): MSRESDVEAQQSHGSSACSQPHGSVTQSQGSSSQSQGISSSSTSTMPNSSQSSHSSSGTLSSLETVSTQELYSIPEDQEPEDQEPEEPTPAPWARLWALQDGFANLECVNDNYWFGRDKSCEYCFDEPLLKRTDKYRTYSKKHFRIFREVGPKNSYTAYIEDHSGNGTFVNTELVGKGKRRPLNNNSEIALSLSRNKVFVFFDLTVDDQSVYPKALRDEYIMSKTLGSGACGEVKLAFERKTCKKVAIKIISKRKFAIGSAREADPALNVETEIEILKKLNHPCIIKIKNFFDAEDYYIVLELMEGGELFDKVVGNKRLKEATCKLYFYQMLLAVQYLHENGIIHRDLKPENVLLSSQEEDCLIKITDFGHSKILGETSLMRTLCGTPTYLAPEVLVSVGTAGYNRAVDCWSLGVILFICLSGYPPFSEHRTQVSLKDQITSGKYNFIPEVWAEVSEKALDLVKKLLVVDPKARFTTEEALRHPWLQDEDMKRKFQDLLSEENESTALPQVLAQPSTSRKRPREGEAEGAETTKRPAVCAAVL

Cc1cc2c(F)c(Oc3nc(Nc4cc(C5CC5)[nH]n4)cc(N4CCN(C)CC4)n3)ccc2[nH]1 [Compound 10]
inhibition at 0.1 µM (CHK2(I157T)(h)): 30%
inhibition at 0.1 µM (CK1δ(h)): -21%
inhibition at 0.1 µM (IR(h)): 83%
inhibition at 0.1 µM (LOK(h)): 73%
inhibition at 0.1 µM (NEK7(h)): 8%
inhibition at 0.1 µM (Pim-2(h)): -25%
inhibition at 0.1 µM (TAO3(h)): 20%
inhibition at 0.1 µM (Yes(h)): 99%

Cc1cc2c(F)c(Oc3nc(Nc4cc(C5CC5)[nH]n4)cc(N4CCNCC4)n3)ccc2[nH]1 [Compound 11, N-(5-cyclopropyl-1H-pyrazol-3-yl)-2-((4-fluoro-2-methyl-1H-indol-5-yl)oxy)-6-(piperazin-1-yl)pyrimidin-4-amine]
inhibition at 0.1 µM (CHK2(I157T)(h)): -1%
inhibition at 0.1 µM (CK1δ(h)): -3%
inhibition at 0.1 µM (IR(h)): 84%
inhibition at 0.1 µM (LOK(h)): 86%
inhibition at 0.1 µM (NEK7(h)): -5%
inhibition at 0.1 µM (Pim-2(h)): 17%
inhibition at 0.1 µM (TAO3(h)): 8%
inhibition at 0.1 µM (Yes(h)): 101%

C/C=C/c1cc(Nc2cc(N3CCN(C)CC3)nc(Oc3ccc4[nH]c(C)cc4c3F)n2)n[nH]1 [Compound 53]
maximum body weight lose ([1]; Q2Dx3): 3.4%
treat/control (T/C) ([1]; Q2Dx3, day 30): 40%
maximum body weight lose ([2]; QDx4): 10.3%
treat/control (T/C) ([2]; QDx4, day 13): 21%

C/C=C/c1cc(Nc2cc(N3CCN(C)CC3)nc(Oc3cc(F)c4[nH]c(C)cc4c3F)n2)n[nH]1 [NTW-3456]
anti-tumor effect [3]: significant anti-tumor activity
anti-tumor activity [4]: significant anti-tumor activity
inhibition at 50 mg/kg [5]: > 60%
concentration at 24 h [6]: 7 nM
